Experimental data as given in paper PMC10994559 (PLOS Neglected Tropical Diseases, 2024).
Read-outs that look alike come from different tables or passages of the source.

Legend:
[1] = test system: intracellular L. infantum amastigotes; experiment: Parasite rescue assay (intramacrophage, J774 infected with L. infantum); format: cell-based, Leishmania infantum; conditions: Leishmania infantum, J774, rescue assay in J774, 25 µM; read-out: Residual viability, intracellular L. infantum amastigote (25 µM)
Description: After 24 h incubation, cells were washed five times with serum free RPMI and exposed to a serial dilution of test compounds, prepared using an acoustic dispenser (Echo 650, Labcyte), in RPMI (2% FCS). After two days, cells were washed thrice, and 20 μl of 0.05% SDS in RPMI was added upon removal of the supernatant. Upon incubation under orbital shaking for 30 seconds, cell lysis was stopped by addition of 180 μl M199 medium supplemented with 10% FCS. […] Then, fluorescence intensity of the samples was measured with a microplate reader (Synergy H1, BioTek) with λEx: 550 nm and λEm: 590 nm. Percent of viability was calculated according to cell only and media controls.
J774A.1 cells (J774) were infected with L. infantum metacyclic promastigotes. […] After controlled lysis of the infected macrophages, the released parasites were quantified using a resazurin based viability assay.

L. major promastigotes = experiment: L. major promastigote viability, resazurin reduction; format: cell-based, Leishmania major; conditions: Leishmania major; 25 µM, 72 h, vs non-treated cells; read-out: Residual viability, L.major promastigote (25 µM)
Description: (§1) The infectivity of the parasites was boosted by passaging in Balb/c mice and culturing the infected lymph nodes after six weeks. L. infantum (MHOM / BR / 76 / M4192) parasite was passaged in the same media formulation with 0.5% urine.

[2] = Cytotoxicity assay J774, resazurin reduction; format: cell-based, murine; conditions: mouse, J774 macrophage cells, cytotoxicity, 72 h
Description: Mammalian cell lines (J774 and HepG2) were passaged in RPMI media supplemented with MEM, Pen-Strep (1%) and 10% FCS. Cultures were kept at 37°C incubator with 5% CO2 in filter-cap flasks.
Murine macrophage cells (J774) and human hepatocyte carcinoma HepG2 cells were seeded at 0.5x10^5 cell/well in 384 well plates in triplicate, exposed to serial dilution of compounds, dispensed using an Echo 650 acoustic dispenser (Labcyte). After incubation for 72 h at 37°C, 5% CO2, cell viability was determined using fluorescence resazurin reduction assay (λEx: 550 nm; λEm: 590 nm).

E. histolytica = E. histolytica viability, ATP luminescence (Cell titer glo); format: cell-based, Entamoeba histolytica; conditions: Entamoeba histolytica, 48 h; for viability at 2.5 µM: read-out: Residual viability, E.histolytica (2.5 µM); for viability at 25 µM: read-out: Residual viability, E.histolytica (25 µM)
Description: Entamoeba histolytica (strain B2-5) was passaged in TY-1 medium (Trypticase peptone BBL, Yeast extract BBL, glucose, NaCl, K2HPO4, KH2PO4, cysteine, ascorbic acid, ammonium iron citrate, adult bovine serum, Diamond tween 80, penicillin G, amikacin (pH:6.8)) and kept in 37°C incubator in completely filled tubes with closed lid.
Viability of E. histolytica was assayed via a luminescence assay based on ATP quantification in the live cells. Briefly, 2.5x10^4 cell/ml were exposed to 25 μM of compounds in 96 well plates (non-transparent, tissue culture treated, flat bottom; SPL Life Sciences) in triplicate for 48h. Plates were incubated in sealed anaerobic bags (Oxoid AGS) together with an Anaerogen compact bag (Thermo Scientific) and anaerobic indicator (Thermo Scientific) at 37°C. Then, Cell titer glo reagent (Promega) was added to the reaction (1:5) according to manufacturers’ instruction. After 15 min of orbital shaking, followed by 10 min incubation at RT, ATP-bioluminescence was quantified at RT using a Synergy H1 plate reader (Synergy H1, BioTek). Metronidazole was included as control drug in all the assays for E. histolytica. Test compounds indicating significant growth reduction in the primary screen were subjected to potency determination. These secondary screens were essentially carried out as detailed above, but with a 9 to 16-point concentration range of the test compounds spanning 0.01–100 μM.

T. brucei brucei BSF = experiment: T. brucei BSF viability, resazurin reduction; format: cell-based, Trypanosoma brucei brucei; conditions: Trypanosoma brucei, 72 h, BSF, 72 h
Description: T. brucei brucei (strain 427 Lister) blood stream form (BSF) parasites were passaged in complete HMI-9 media supplemented with 10% FCS, Pen-Strep (0.1%) and 2-mercaptoethanol (0.014 v/v) and kept in a 37° C CO2 incubator in filter-cap flasks.
(§2) Viability of T. brucei brucei BSF and T. cruzi trypomastigotes was assayed with fluorescence resazurin reduction assay, essentially as described above. […] Next, selected compounds were tested at 2.5 μM concentration, and promising compounds subjected to 18 concentrations dose response analyses. AN3057 and AmB were used as a control drug in T. brucei and T. cruzi, respectively.

[3] = test system: L. infantum promastigotes; experiment: L. infantum promastigote viability, resazurin reduction; format: cell-based, Leishmania infantum; conditions: Leishmania infantum, 72 h, vs non-treated cells
Description: as §1

[4] = test system: L. major axenic amastigotes; experiment: L. major axenic amastigote viability, resazurin reduction; conditions: Leishmania major
Description: L. major LV561(MHOM/IL/67/LRC-L137 JERICHO II) amastigotes were passaged in Grace insect medium supplemented with NaHCO3, 0.1% amikin and 20% of FCS (pH: 5.4) and kept at 33°C.
Exponential growth phase promastigotes of L. major or L. infantum and axenic amastigotes (L. major) were harvested and seeded in 384 well plates (white, non-transparent, tissue culture treated, flat bottom; Corning) (0.5x10^5 cells per well). Compounds were pre-dispensed into the plate with an Echo 650 acoustic dispenser (Beckman Coulter). After 72h incubation, resazurin was added (1:10 v/v) from a […] stock in PBS, followed by incubation for six hours. Then, fluorescence intensity was measured using a microplate reader (Synergy H1, BioTek) with excitation filter: 550 nm and emission filter: 590 nm. Efficient compounds were selected for the next round of viability assay with 2.5 μM concentrations of the compounds. […] All experiments were performed with AmB as a positive control drug in parallel.
Axenic amastigotes, the relevant form that persists in the infected host, were generated in the lab through established procedures, employing harsh pH (pH 5) and high temperature (33°C) conditions.

T. cruzi trypomastigotes = experiment: T. cruzi viability, resazurin reduction; format: cell-based, Trypanosoma cruzi; conditions: Trypanosoma cruzi, 72 h, 72 h
Description: T. cruzi (Y strain) trypomastigotes were passaged in liver infusion broth media supplemented with tryptose, NaCl, Na2HPO4, KCl, glucose, hemin, Pen-Strep (1%), 10% FCS (pH: 7.2) and kept at 28°C.
as §2

T. brucei BSF proteome = test system: T. brucei BSF proteome; parameters: method as in PMID: 32354742; conditions: ref PMID: 32354742, cited from earlier work

`CC[C@@H](C)[C@H](c1nc2ccccc2n1Cc1cn(-c2c(F)c(F)c(F)c(F)c2F)nn1)N1C(=O)c2ccccc2C1=O` [PHT-41] gave a viability at 25 µM [1] of 81.4 ± 2.86%, a viability at 25 µM (L. major promastigotes) of 21.5 ± 1.47% and a viability at 72 h, 2.5 µM ([2]; 2.5 µM, read-out: Residual viability, J774 (2.5 µM)) of 96.1 ± 3.84%. For the same compound, the viability at 72 h, 25 µM ([2]; 25 µM, read-out: Residual viability, J774 (25 µM)) was 86.1 ± 5.26%, the viability at 2.5 µM (E. histolytica; 2.5 µM) was 110 ± 24.2% and the viability at 25 µM (E. histolytica; 25 µM) was 53.3 ± 1.97%. It also gave a viability at 2.5 µM (T. brucei brucei BSF; 2.5 µM, read-out: Residual viability, T.brucei (2.5 µM)) of 57.4 ± 11%, a viability at 25 µM (T. brucei brucei BSF; 25 µM, read-out: Residual viability, T.brucei (25 µM)) of 3.15 ± 3% and a viability at 2.5 µM ([3]; 2.5 µM, read-out: Residual viability, L. infantum promastigote (2.5 µM)) of 54.6 ± 1.29%. For the same compound, the viability at 25 µM ([3]; 25 µM, ± SD, triplicate, read-out: Residual viability, L. infantum promastigote (25 µM)) was 12.4 ± 1.22%, the viability at 2.5 µM ([4]; 72 h, read-out: Residual viability, L.major amastigote (2.5 µM)) was 64.8 ± 5.36% and the viability at 25 µM ([4]; 72 h, read-out: Residual viability, L.major amastigote (25 µM)) was 4.6%. It also gave an EC50 ([4]; read-out: EC50 L. major axenic amastigote) of 3.6 ± 2.1 µM, a viability at 2.5 µM (T. cruzi trypomastigotes; 2.5 µM, read-out: Residual viability, T.cruzi (2.5 µM)) of 64.5 ± 2.58% and a viability at 25 µM (T. cruzi trypomastigotes; read-out: Residual viability, T.cruzi (25 µM), 25 µM, 72 h) of 22.7 ± 0.63%.
In the case of `Cc1ncc([N+](=O)[O-])n1CCO` [Metronidazole, reference compound], the viability at 2.5 µM (E. histolytica) is reported as 71.6 ± 32.3%, the viability at 25 µM (E. histolytica) is reported as -7.82 ± 3.48% and the EC50 (E. histolytica; 9 to 16-point dose response) is reported as 2.9 ± 1.8 µM.
In the case of `Cc1ccc(C(=O)Nc2ccc(S(=O)(=O)O)c3cc(S(=O)(=O)O)cc(S(=O)(=O)O)c23)cc1NC(=O)c1cccc(NC(=O)Nc2cccc(C(=O)Nc3cc(C(=O)Nc4ccc(S(=O)(=O)O)c5cc(S(=O)(=O)O)cc(S(=O)(=O)O)c45)ccc3C)c2)c1` [suramin], the “suramin ratio (protein abundance)” value (T. brucei BSF proteome; protein 2-oxoglutarate dehydrogenase E1 component, Tb927.11.1450) is listed as 2.73, the “suramin ratio (protein abundance)” value (T. brucei BSF proteome; protein 2-oxoglutarate dehydrogenase E1 component, Tb927.11.9980) is listed as 3.16 and the “suramin ratio (protein abundance)” value (T. brucei BSF proteome; protein ACS1, Tb927.7.6180) is listed as 0.80. The “suramin ratio (protein abundance)” value (T. brucei BSF proteome; protein Aconitase, Tb927.10.14000) was 2.76, the “suramin ratio (protein abundance)” value (T. brucei BSF proteome; protein CIF1 (TOEFAZ1), Tb927.11.15800) was 0.78 and the “suramin ratio (protein abundance)” value (T. brucei BSF proteome; protein CIF3, Tb927.10.13100) was 1.00. The “suramin ratio (protein abundance)” value (T. brucei BSF proteome; protein CIF4, Tb927.10.8240) was 0.84, the “suramin ratio (protein abundance)” value (T. brucei BSF proteome; protein F1 alpha, Tb927.7.7430, Tb927.7.7420) was 1.62 and the “suramin ratio (protein abundance)” value (T. brucei BSF proteome; protein F1 beta, Tb927.3.1380) was 1.57. For the same compound, the “suramin ratio (protein abundance)” value (T. brucei BSF proteome; protein F1 gamma, Tb927.10.180) was 1.62, the “suramin ratio (protein abundance)” value (T. brucei BSF proteome; protein F1 p18, Tb927.5.1710) was 0.87 and the “suramin ratio (protein abundance)” value (T. brucei BSF proteome; protein FPRC, Tb927.10.6360) was 1.14. The “suramin ratio (protein abundance)” value (T. brucei BSF proteome; protein Fo 8, Tb927.4.3450) was 1.62, the “suramin ratio (protein abundance)” value (T. brucei BSF proteome; protein Fo ATBTB1, Tb927.10.520) was 1.20 and the “suramin ratio (protein abundance)” value (T. brucei BSF proteome; protein Fo ATBTB3, Tb927.11.6250) was 1.77. The “suramin ratio (protein abundance)” value (T. brucei BSF proteome; protein Fo ATBTB4, Tb927.10.9830) was 0.88, the “suramin ratio (protein abundance)” value (T. brucei BSF proteome; protein Fo ATBTB12, Tb927.5.3090) was 1.92 and the “suramin ratio (protein abundance)” value (T. brucei BSF proteome; protein Fo OSCP, Tb927.10.8030) was 1.11. For the same compound, the “suramin ratio (protein abundance)” value (T. brucei BSF proteome; protein Fo d, Tb927.5.2930) was 1.32, the “suramin ratio (protein abundance)” value (T. brucei BSF proteome; protein Fo e, Tb927.11.600) was 1.21 and the “suramin ratio (protein abundance)” value (T. brucei BSF proteome; protein Fo f, Tb927.3.1690) was 1.06. For the same compound, the “suramin ratio (protein abundance)” value (T. brucei BSF proteome; protein Fo i/j, Tb927.3.2880) was 1.67, the “suramin ratio (protein abundance)” value (T. brucei BSF proteome; protein Fo k, Tb927.7.840) was 1.07 and the “suramin ratio (protein abundance)” value (T. brucei BSF proteome; protein Glutamate dehydrogenase, Tb927.9.5900) was 3.30. For the same compound, the “suramin ratio (protein abundance)” value (T. brucei BSF proteome; protein PIP39, Tb927.9.6090) was 2.83, the “suramin ratio (protein abundance)” value (T. brucei BSF proteome; protein PPDK, Tb927.11.6280) was 2.94 and the “suramin ratio (protein abundance)” value (T. brucei BSF proteome; protein Proline dehydrogenase, Tb927.7.210) was 4.55. For the same compound, the “suramin ratio (protein abundance)” value (T. brucei BSF proteome; protein SAXO, Tb927.8.6240) was 0.98, the “suramin ratio (protein abundance)” value (T. brucei BSF proteome; protein Tb927.1.4280) was 0.91 and the “suramin ratio (protein abundance)” value (T. brucei BSF proteome; protein isocitrate dehydrogenase, Tb927.8.3690) was 1.96. For the same compound, the “suramin ratio (protein abundance)” value (T. brucei BSF proteome; protein mitochondrial malate dehydrogenase, Tb927.10.2560) was 1.99, the “suramin ratio (protein abundance)” value (T. brucei BSF proteome; protein succinyl-CoA ligase beta-chain, Tb927.10.7410) was 1.97 and the “suramin ratio (protein abundance)” value (T. brucei BSF proteome; protein succinyl-CoA synthetase alpha subunit, Tb927.3.2230) was 1.94.
